Consider 12 compounds from patent US7790738B2, “Methods of treating and preventing AIDS using of COX-2 inhibitors” (Lauras AS, priority 2000, dated 2010).

Several values for one entry are separate records, joined by “and”; a condition that tells them apart may be missing. Identical values can stand only once. Like-named read-outs stand apart in the source and are kept apart here. Marks after values point to notes of the source that are not given here. Some results are limits rather than exact numbers.

For data set [1], the target named is T1, COX-2 (Homo sapiens, UniProt P35354).
T1 sequence (P35354 18-604): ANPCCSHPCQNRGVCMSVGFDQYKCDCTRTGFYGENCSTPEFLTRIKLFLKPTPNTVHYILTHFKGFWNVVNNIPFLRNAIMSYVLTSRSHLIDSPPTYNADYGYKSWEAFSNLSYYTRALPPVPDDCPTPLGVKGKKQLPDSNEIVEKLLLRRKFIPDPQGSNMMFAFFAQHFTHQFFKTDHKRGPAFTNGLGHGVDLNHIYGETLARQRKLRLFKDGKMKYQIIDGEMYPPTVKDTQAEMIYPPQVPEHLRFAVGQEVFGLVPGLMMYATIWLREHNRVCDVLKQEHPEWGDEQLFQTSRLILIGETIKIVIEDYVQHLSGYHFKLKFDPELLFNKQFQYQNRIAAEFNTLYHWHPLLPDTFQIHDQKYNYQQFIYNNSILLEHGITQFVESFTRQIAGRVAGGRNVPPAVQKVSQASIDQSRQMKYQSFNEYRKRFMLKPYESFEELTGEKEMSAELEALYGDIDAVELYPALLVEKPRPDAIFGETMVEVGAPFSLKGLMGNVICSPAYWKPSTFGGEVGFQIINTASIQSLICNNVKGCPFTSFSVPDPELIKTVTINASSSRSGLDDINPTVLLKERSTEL
The note with it: cited from earlier work; for COX-2 selectivity COX-1/COX-2: ratio of IC50, recombinant human enzymes; for IC50: recombinant human PGH synthesis, Laneuvill et al. 1994, read-out: COX-2 IC50.

Data set [2] concerns the target COX-1 (Homo sapiens, UniProt P23219). The note with it: recombinant human PGH synthesis; Laneuvill et al. 1994; cited from earlier work.
In data set [3] the test system is lymph node mononuclear cells from MAIDS and control mice. Briefly: anti-CD3 induced T cell proliferation in mixed unsorted lymph node cells, compound added in vitro. It counts as cell-based, mouse. Here is the method: T cell activation was accomplished by cross-ligation of anti-CD3 (mAb 2C11; 4 μg/ml). […] Cells were cultured for 72 h during which [^3H] -thymidine was included for the last 4 h;
T cell activation was accomplished by cross-ligation of anti-CD3 (mAb 2C11; 4 μg/ml). […] Cells were cultured for 72 h during which [^3H ]-thymidine was included for the last 4 h;
The optimal concentration of antibody was titrated carefully in the initial setup and parallel experiments at several different dilutions of antibody was always performed. Proliferation was analyzed by incubating cells for 72 hours during which [^3H]-thymidine (0.4 μCi) was included for the last 4 hours and collected with a cell harvester (Skatron, Sterling, Va., USA) onto glass fiber filters. Incorporated precursor was counted in a scintillation analyzer (Tri-Carb, Packard, Meriden, Conn., USA). cAMP analogs, when used, were added 30 min prior to activation by addition of anti-CD3 antibodies.

Data set [4] has as its system HIV infected patients. Briefly: phase II clinical trial, indomethacin in vivo, T cell proliferation after activation. The conditions noted are these: for T cell immune function, patients responding: 7 patients. Here is the method:
T cell activation was accomplished by cross-ligation of anti-CD3 (mAb SpVT3b). […] Bars show mean values±SD from triplicate determinations. Cells were cultured for 72 h during which [^3H]-thymidine was included for the last 16 h;
Mean values from triplicate determinations are plotted, connector lines show development of each patient;
Peripheral blood CD3+ T cells were purified by negative selection from buffycoats from normal healthy donors (Ullevaal University Hospital Blood Center, Oslo, Norway). Briefly, peripheral blood mononuclear cells were isolated by density gradient (Lymphoprep, NycoMed, Oslo, Norway) centrifugation followed by negative selection using monodisperse magnetic beads directly coated with antibodies to CD14 and CD19 and rat anti-mouse IgG beads coated with antibodies to CD56 and a magnet. […] All steps were performed at 4° C.
Proliferation assays were performed by incubation of 0.75×10^6 CD3+ T cells/ml in a 100 μl volume in flat-bottom 96-well microtiter plates. […] The optimal concentration of antibody was titrated carefully in the initial setup and parallel experiments at several different dilutions of antibody were always performed. Proliferation was analyzed by incubating cells for 72 hours during which [^3H]-thymidine was included for the last 16 hours. Cells were washed and harvested onto glass filters and subsequently analyzed by β-scintillation counting. CAMP analogs, when used, were added 30 min prior to activation by addition of anti-CD3 antibodies. 8-CPT-cAMP was from Sigma (St. Louis, Mo.).

Data set [5] deals with COX-1 (Cavia porcellus, UniProt H0V9X9). The note with it: read-out: COX-1 IC50; guinea pig macrophage model; Engelhart et al. 1995; cited from earlier work.
COX-1 (Cavia porcellus, UniProt H0V9X9), sequence (H0V9X9 entry or part of it): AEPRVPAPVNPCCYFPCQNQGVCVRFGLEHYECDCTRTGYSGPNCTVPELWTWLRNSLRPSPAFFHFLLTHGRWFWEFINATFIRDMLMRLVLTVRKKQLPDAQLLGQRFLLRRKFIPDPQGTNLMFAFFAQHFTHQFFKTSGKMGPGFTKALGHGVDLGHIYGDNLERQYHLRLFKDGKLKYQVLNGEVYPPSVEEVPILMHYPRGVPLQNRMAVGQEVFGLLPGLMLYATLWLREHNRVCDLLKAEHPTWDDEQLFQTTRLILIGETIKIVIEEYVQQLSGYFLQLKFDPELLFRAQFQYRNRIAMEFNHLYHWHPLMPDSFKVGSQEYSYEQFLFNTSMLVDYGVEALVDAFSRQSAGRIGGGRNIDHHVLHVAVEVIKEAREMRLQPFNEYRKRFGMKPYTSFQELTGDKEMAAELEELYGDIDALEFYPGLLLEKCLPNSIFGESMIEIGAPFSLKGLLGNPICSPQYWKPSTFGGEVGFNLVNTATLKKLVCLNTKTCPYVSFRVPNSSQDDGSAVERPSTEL
Data set [6] addresses T1, COX-2. The note with it: cited from earlier work.
Data set [7] has as its system MAIDS mice. Briefly: in vivo treatment of MAIDS mice, anti-CD3 induced T cell proliferation assessed in lymph node cells. Further details: species or system mouse. The note with it: for increase of T cell responses to anti-CD3 versus untreated mice: intraperitoneal in intralipid, 18 to 20 days, rofecoxib 3, celecoxib 20 mg/kg/day. Here is the method: Subsequently, T cell proliferative responses were assessed in vitro in a mixed population of unsorted lymph node mononuclear cells from treated and untreated animals by [^3H]-thymidine incorporation in the absence (columns A) and presence of Rp-8-Br-cAMPS (0.5 or 1.0 mM, columns B and C, respectively). T cell activation was accomplished in all samples by cross-ligation of anti-CD3 (mAb 2C11; 4 μg/ml). Control represents T cell proliferation in uninfected mice. Mean values from triplicate determinations are shown. Cells were cultured for 72 h during which [^3H]-thymidine was included for the last 4 hours;
Subsequently, T cell proliferative responses were assessed in vitro as described for FIG. 16 but without Rp-Br-cAMPs. Control represents T cell proliferation in uninfected mice. Mean values from triplicate determinations are shown (black circles) along with 25 to 75% percentile (boxed areas) and median (line in box). Bars represent range; and
Mean values±standard error of the mean (s.e.m.) from each group are shown. […] Statistics were analysed by Mann-Whitney U test for comparison of two groups of animals and with Wilcoxon Matched Pairs Test for comparison of the same group with two different treatments.
MAIDS mice normally develop an immunoproliferation syndrome with enlarged lymph nodes and spleen.
Parenteral administration was accomplished by intraperitoneally injecting Cox-2 inhibitors formulated in intralipid.

In data set [8] the test system is CD3+ T cells from MAIDS and control mice. Briefly: TCR/CD3 stimulated proliferation of isolated T cells, [3H]-thymidine incorporation. Format: cell-based, mouse. Here is the method:
TCR/CD3 stimulated T cell proliferation was assessed with isolated T cells from MAIDS mice (A) and uninfected control mice (B). The effect of increasing concentrations of cAMP agonist (8-CPT-cAMP) on TCR/CD3 stimulated proliferation of CD3+ T cells isolated from MAIDS (open circles, dotted line) and control mice (filled circles and solid line) was examined separately in the same experiments (C). Mean values of triplicate determinations±SD are shown. See Table 4 for summarised data (n=11). Note: Scaling differs in A and B, whereas in C the TCR/CD3 induced proliferation in the absence of cAMP agonist is normalized to 100% for both MAIDS and control T cells;
Activation was achieved by subsequent addition of monodisperse magnetic beads coated with sheep anti-mouse IgG (Dynal, cat. no. 110.02) at a cell:bead ratio of 1:1 followed by addition of anti-CD3 (clone 2C11) at a final dilution of 4 μg/ml for the experiments shown. […] 8-CPT-cAMP was from Sigma (St. Louis, Mo.) and Sp- and Rp-8-Br-cAMPS were from BioLog Life Science Company (Bremen, Germany) and were all dissolved to concentrations of 4 to 10 mM in PBS and concentrations calculated using the extinction coefficients given by the manufacturer.
(In general: Dividing cells build labelled thymidine or BrdU into new DNA.)

The subject of data set [9] is CD3+ T cells from HIV infected patients. Briefly: proliferation of HIV patient CD3+ T cells with cAMP antagonist added in vitro. Format: cell-based, human. The text has this: Bars show mean values±SD from triplicate determinations.
8-CPT-cAMP was from Sigma (St. Louis, Mo.).

Data set [10] relates to MAIDS mice. Briefly: in vivo treatment of MAIDS mice, lymphoproliferation (spleen and lymph node weight). The conditions noted are these: MAIDS mice 17 weeks post-infection, per os 7 days, 3 mg/kg/day. Details: species or system mouse.

COX-1 (Homo sapiens, UniProt P23219), sequence (P23219 24-599): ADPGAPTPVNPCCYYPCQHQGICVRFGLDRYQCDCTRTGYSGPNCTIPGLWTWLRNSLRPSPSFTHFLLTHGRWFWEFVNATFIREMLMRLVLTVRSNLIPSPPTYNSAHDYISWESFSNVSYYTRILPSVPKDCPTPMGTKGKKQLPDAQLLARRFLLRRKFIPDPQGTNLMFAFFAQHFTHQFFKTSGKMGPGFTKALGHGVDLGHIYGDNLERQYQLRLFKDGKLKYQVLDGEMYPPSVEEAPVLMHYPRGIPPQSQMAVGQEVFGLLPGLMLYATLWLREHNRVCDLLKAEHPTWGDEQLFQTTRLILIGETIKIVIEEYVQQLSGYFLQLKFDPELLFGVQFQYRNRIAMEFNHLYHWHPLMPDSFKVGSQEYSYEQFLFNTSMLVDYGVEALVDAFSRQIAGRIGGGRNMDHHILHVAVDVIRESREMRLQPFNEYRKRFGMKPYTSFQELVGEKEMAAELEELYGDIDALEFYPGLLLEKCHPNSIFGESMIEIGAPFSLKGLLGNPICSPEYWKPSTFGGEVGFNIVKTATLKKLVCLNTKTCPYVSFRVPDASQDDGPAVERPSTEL

For `COc1ccc2cc(CC(=O)O)ccc2c1` [6-MNA], in data set [1], the “COX-2 selectivity COX-1/COX-2” value is 0.7. Moreover, the half-inhibitory concentration (IC50) (as a rule, the concentration that gives 50% inhibition) in data set [1] is 93.5 µM; in data set [2], 64 µM.

Consider `CC/C=C\C/C=C\C/C=C\C/C=C\C/C=C\C/C=C\CCC(=O)O` [DHA (22:6)], for which, in data set [1], the “COX-2 selectivity COX-1/COX-2” value was 0.6 and the IC50 is 41 µM. The IC50 in data set [2] is 25.6 µM.

For the compound `COc1ccc2c(c1)c(CC(=O)O)c(C)n2C(=O)c1ccc(Cl)cc1` [Indomethacin], the “T cell proliferation, Indomethacin” value is 1412 in data set [3] (MAIDS mice, median, n = 7, no anti-CD3); 2363 and 7316 and 1412 and 1129 and 265 and 335 and 4317 in data set [3] (individual MAIDS mice, no anti-CD3, indomethacin 50 ng/ml). The “T cell proliferation, Indomethacin/Anti-CD3” value in data set [3] (MAIDS mice, median, n = 8, anti-CD3 plus indomethacin) is 15601**; in [3] (individual MAIDS mice, anti-CD3 plus indomethacin 50 ng/ml), 19624 and 31830 and 42244 and 9381 and 47926 and 1345 and 11579 and 8545. Moreover, the “effect on anti-CD3 induced proliferation” value is given as “did not alter proliferation” in [3] (control cultures of uninfected mice, indomethacin) and “strongly increased the proliferation of cells from five MAIDS-infected mice to levels comparable to that of control mice” in data set [3] (mixed lymph node cells of five MAIDS-infected mice, 72 h). In addition, the “T cell immune function, patients responding” value is “two of seven patients had clearly elevated T cell immune function” in data set [4] (after 14 days of treatment, 25 mg three times a day) and “five of seven patients had elevated immune responsiveness” in data set [4] (two weeks after discontinuation, versus day 0). The adverse events result in [4] (HIV patients, 50 mg 3 times a day) was “epigastrial pain and dyspepsia”. The “increase of T cell responses after in vivo treatment” value in data set [4] (patient 3, 25 mg three times a day perorally, 14 days, persisted to day 28) is on record as “approximately 2.5 fold”. For the same compound, the “T cell immune function after in vivo treatment” value in data set [4] (patients 1 and 2, 25 mg three times a day perorally, 14 days) was “did not increase their immune function”. Moreover, the half-maximal inhibitory concentration (IC50) in [5] was 0.00021 µM.

Take `O=C(c1ccccc1)c1ccc2n1CCC2C(=O)O` (centres unmarked) [Ketorolac tromethamine]: in [1], the “COX-2 selectivity COX-1/COX-2” value was 0.5. Besides, the half-inhibitory concentration (IC50) in data set [2] was 31.5 µM.

On to `CS(=O)(=O)Nc1cc2c(cc1Sc1ccc(F)cc1F)C(=O)CC2` [L-745337], for which, in [6] (WHMA test, Warner et al.), the “Ratio COX-2/WHMA-COX-1 at IC80” value is given as below 0.01.

Consider `Cc1ccc(Cl)c(Nc2ccccc2C(=O)O)c1Cl` [Meclofenemate], for which, in data set [1], the “COX-2 selectivity COX-1/COX-2” value is 0.15 and the IC50 is 9.7 µM. In data set [2], the concentration for half-maximal inhibition (IC50) is 1.5 µM.

For `Cc1cnc(NC(=O)C2=C(O)c3ccccc3S(=O)(=O)N2C)s1` [Meloxicam, 4-hydroxy-2-methyl-N-(5-methyl-2-thiazolyl)-1,1-dioxide-2H-1,2-benzothiazine-3-carboxamide], the “increase of T cell immune responses to anti-CD3 versus PBS-treated infected mice” value in data set [7] (2.8 mg/kg/day, subcutaneous osmotic pump, 14 days, p<0.05) is reported as “more than 10 fold”. The IC50 in [5] was 0.00577 µM.

Turning to `Nc1ncnc2c1nc(Br)n2C1OC2COP(O)(=S)OC2C1O` (centres unmarked) [Rp-8-Br-cAMPS, Rp-8-Bromo-cAMP-phosphorothioate], the “increase in TCR/CD3-induced proliferation” value in [8] (MAIDS T cells, higher concentrations, FIG. 5A) is given as “more than 4 fold”. The “Increase in proliferation by Rp-8-Br-cAMPS” value in [8] (MAIDS mice, median, n = 11) was 2.2 fold increase; in [8] (control mice, median, n = 6), 1.1 fold increase; in [8] (individual MAIDS mice 1-11, anti-CD3 induced proliferation), 14 fold increase and 37 fold increase (3×) and 10 fold increase and 19 fold increase (2×) and 22 fold increase and 42 fold increase and 40 fold increase and 24 fold increase. Also, the “effect on TCR/CD3-induced proliferation” value in [8] (control T cells, FIG. 5B) is recorded as “no stimulation was observed”. Further, the “effect on anti-CD3 stimulated mixed lymph node cultures” value in data set [3] (MAIDS mice that received PBS in vivo, 0.5 mM) was “increased immune responses”. In [9] (patient 2, 1 mM), the “effect on proliferation by antagonist in vitro” value is listed as “no effect”. In addition, in data set [9] (patients 1 and 3, all time points, 1 mM), the “increase in proliferation by antagonist in vitro” value is on record as “approx. 2 fold”.

`O=C(O)c1ccccc1O` [Salicyclic acid]: the IC50 in data set [1] and in data set [2] was above 1000 µM in each case.

`Cc1ccc(-c2cc(C(F)(F)F)nn2-c2ccc(S(N)(=O)=O)cc2)cc1` [celecoxib, 4-(5-(4-methylphenyl)-3-(trifluoromethyl)-1H-pyrazol-1-yl)-benzenesulfonamide]: the EC50 in [3] (Mus musculus, T-cell, read-out: concentration producing half-maximal effect (ED50) on T cell proliferation) was around 0.03 µM. Further, the “increase of T cell responses to anti-CD3 versus untreated mice” value in [7] is listed as “approximately 3 fold”.

On to `CS(=O)(=O)Nc1ccc([N+](=O)[O-])cc1Oc1ccccc1` [nimesulide], for which the “Ratio COX-2/WHMA-COX-1 at IC80” value in data set [6] is 0.17.

On to `CS(=O)(=O)c1ccc(C2=C(c3ccccc3)C(=O)OC2)cc1` [rofecoxib], for which the “increase of anti-CD3 induced proliferation” value in data set [3] (cells from MAIDS mice 17 weeks post-infection, concentration-dependent, 1.9 to 500 nM) was “two- to three-fold”. In data set [7] (MAIDS mice treated per os one week), the “Rp-8-Br-cAMPS effect on anti-CD3 induced proliferation after in vivo treatment” value was “lost”. In addition, the “increase of T cell responses to anti-CD3 versus untreated mice” value in [7] is reported as “approximately two-fold”. Besides, in [10], the average spleen weight was 0.8 g and the “average weight of pooled lymph nodes” value was determined as 0.3 g.
